Test results: US6458840B2, “Use of valproic acid analog for the treatment and prevention of migraine and affective illness” (American Biogenetic Sciences, Inc., priority 1998, dated 2002)
Where “and” joins values, the source holds several entries; their conditions need not be identical. Identical values can stand only once. Values belong to the molecule of their own block, whether it stands above or below them.

Columns and labels:
Assay type in all cases: in vivo, rat
[1] = Plasma drug levels after treatment and kindling stimulation; settings: same dose of both drugs, immediately after treatment and kindling stimulation; for Plasma Drug Levels, Average: average of 8 rats; for Plasma Drug Levels, individual rats: each line one rat (784-793)
Description: Since there were differences in potencies between both compounds, plasma was obtained from rats immediately after treatment and kindling stimulation during one dose experiment.

[2] = Open field observation, behavioral rating of adverse effects; settings: for antaxia (1-6) / hypolocomotion (1-3) / muscle relaxation (1-3): 13′ after application, mean (X)
Procedure: (§1) Tests included open field observations, rotarod test and body temperature. Tests were always performed in the same manner in control and drug experiments at two different times, just before application of drug or vehicle and 13 minutes after application.
(§2) In addition to these quantitative estimations of neurological deficit, behavioral alterations observed after administration of 2-propyl-4-hexynoic acid and valproate noted in the cage and by placing the animals in an open field of 90-100 cm diameter. Muscle tone was estimated by palpation of the abdomen. The extent of deficits in behavior after administration of the compounds was determined by a rating system (Loscher et al. 1987). In short, animals were taken out of the cage, placed in an open field, observed for about 1 minute and rated separately for ataxia, abducted hindlimbs, reduced righting, flat body posture, circling, Straub tail, piloerection, hypolocomotion and hyperlocomotion (abdominal muscle tone was evaluated by palpation at the end of the period of observation). All other parameters except ataxia were scored from 0 to 3: 0-absent; 1-equivocal; 2-present; 3- intense. For ataxia (06): 1 -slight ataxia in hind-legs (tottering of the hind quarters); 2-more pronounced ataxia with dragging of hind legs; 3-further increase of ataxia and more pronounced dragging of hind legs; 4-marked ataxia, animals lose balance during forward locomotion; 5- very marked ataxia with frequent loss of balance during forward locomotion; 6-permanent loss of righting reflexes, but animal still attempts to move forward. Rectal body temperature was measured by an electronic thermometer. Body weight of the animals was recorded once daily before drug injection. Significance of differences in behavior between pre-drug and post-drug data determined in the same group of animals was calculated by the Wilcoxon signed rank test for paired replicates and for body temperature by Student's paired t-test (SigmaStat for Windows, version 1.0). Differences in body temperature were always compared only within the experimental day with the pre-drug time as control to one post-drug time.

[3] = Rotarod test (neurological deficit) in kindled rats
Procedure: as §1
The rotarod test was carried out with a rod of 6 cm diameter and rotation speed of 8 r.p.m. Neurological deficit was indicated by inability of the animals to maintain their equilibrium for at least 1 min on the rotating rod. Rats had to be trained prior to drug experiments to maintain their balance on the rod. After drug or vehicle treatment, rats which were not able to maintain their equilibrium on the rod for 1 minute were put again on the rod twice.

Rectal body temperature = settings: for BODY TEMP., day of exper., 13′ post appl.: mean (X)
Procedure: Female Wistar rats (Harlan-Winkelmann, Borchen, Germany) were obtained at an age of 11-12 weeks (body weight 180-200 g). Female rats were employed because they are known to eliminate drugs less rapidly than do males, which was thought to be an advantage for drug potency studies. Rats were kept separately in plastic cages at controlled temperature (23° C.) and humidity (about 50 %) with a 12-h light cycle beginning at 7 a.m. They received standard diet (Altromin; Lage, F.R.G.), tap water and libitum. All drug injections were done in the afternoon at an ambient temperature of 23-25° C. The regular protocol started by taking the rats out of their individual cage, weighing them and joining them together on a table with six open plastic cages for better behavioral observations. Therefore animals were able to move from one cage to another and either to have social contact or to avoid it. After a short adaptation time of approximately 15 minutes, rectal body temperatures were recorded followed by drug or vehicle application.
as §1, §2

[4] = doses 50, 75, 100, 200 mg/kg i.p.
[5] = 50 mg/kg i.p., 13′ after application
[6] = 75 mg/kg i.p., 13′ after application
[7] = 200 mg/kg i.p., listed as valproate

Compound: CC#CCC(CCC)C(=O)O (stereo not shown) [2-propyl-4-hexynoic acid, 2-n-propyl-4-hexynoic acid]
- Plasma Drug Levels, Average [1]: 198.37 µg/mL
- Plasma Drug Levels, individual rats [1]: 209.31 µg/mL and 201.34 µg/mL and 218.87 µg/mL and 154.89 µg/mL and 220.70 µg/mL and 180.10 µg/mL and 170.68 µg/mL and 225.95 µg/mL
- antaxia (1-6) ([2]; 200 mg/kg i.p.): 1.5 score
- hypolocomotion (1-3) ([2]; 200 mg/kg i.p.): 1.4 score
- muscle relaxation (1-3) ([2]; 200 mg/kg i.p.): 1.4 score
- BEHAVIOR (score) antaxia (1-6) ([2]; 200 mg/kg, 13′, mean of 8 rats): 1.50 score
- BEHAVIOR (score) hypolocomotion (1-3) ([2]; 200 mg/kg, 13′, mean of 8 rats): 1.38 score
- BEHAVIOR (score) muscle relaxation (1-3) ([2]; 200 mg/kg, 13′, mean of 8 rats): 1.38 score
- BEHAVIOR (score) red. righting (1-3) ([2]; 200 mg/kg, 13′, mean of 8 rats): 0.75 score
- adverse effects, in words [2, 4]: only observed at the highest dose of 200 mg/kg and were milder than with valproate
- rotarod-test, day of exper. [3, 5]: 0%
- rotarod-test, day of exper. [3, 6]: 0%
- rotarod-test, day of exper. ([3]; 200 mg/kg, 13′, all 8 animals +): 0%
- rotarod-test, in words [3, 4]: performed successfully by all individuals
- BODY TEMP., day of exper., 13′ post appl. (Rectal body temperature; 50 mg/kg i.p.): 38.48 °C
- BODY TEMP., day of exper., 13′ post appl. (Rectal body temperature; 75 mg/kg i.p.): 38.49 °C
- BODY TEMP. (° C.) day of exper. 13′ post appl. (Rectal body temperature; 200 mg/kg, 13′ post appl., mean of 8 rats, ante appl. 38.68): 37.94 °C
- body-temperatures, in words (Rectal body temperature; [4]): maintained within the physiological range

- Plasma Drug Levels, Average [1]: 182.26 µg/mL
- BODY TEMP., day of exper., 13′ post appl. (Rectal body temperature; 50 mg/kg i.p.): 38.82 °C
- BODY TEMP., day of exper., 13′ post appl. (Rectal body temperature; 75 mg/kg i.p.): 38.55 °C
- alterations in body-temperature, in words (Rectal body temperature; 100 mg/kg i.p.): No alterations
- BODY TEMP., day of exper., 13′ post appl. (Rectal body temperature; 100 mg/kg i.p.): 38.97 °C
- BODY TEMP., day of exper., 13′ post appl. (Rectal body temperature; 200 mg/kg i.p.): 39.18 °C
- BODY TEMP., day of exper., 13′ post appl. (Rectal body temperature; [7]): 39.2 °C
Compound: CCCC(CCC)C(=O)O [Valproate, valproic acid]
- Plasma Drug Levels, individual rats [1]: 197.82 µg/mL and 189.87 µg/mL and 168.89 µg/mL and 173.37 µg/mL and 205.44 µg/mL and 174.06 µg/mL and 157.83 µg/mL and 190.82 µg/mL
- alterations in behavior, in words ([2]; 100 mg/kg i.p.): No alterations
- further adverse effects, in words ([2]; 200 mg/kg i.p.): wet dog shakes
- antaxia (1-6) ([2]; 200 mg/kg i.p.): 2.75 score
- hypolocomotion (1-3) ([2]; 200 mg/kg i.p.): 1.00 score
- muscle relaxation (1-3) ([2]; 200 mg/kg i.p.): 2.00 score
- antaxia (1-6) [2, 7]: 2.8 score
- hypolocomotion (1-3) [2, 7]: 1.0 score
- muscle relaxation (1-3) [2, 7]: 2.0 score
- rotarod-test, day of exper. [3, 5]: 0%
- rotarod-test, day of exper. [3, 6]: 0%
- rotarod test, in words ([3]; 100 mg/kg i.p.): performed without failure
- rotarod-test, day of exper. ([3]; 100 mg/kg i.p., 13′ after application): 0%
- rotarod test, in words ([3]; 200 mg/kg i.p.): performed without failure
- rotarod-test, day of exper. ([3]; 200 mg/kg i.p., 13′ after application): 0%
